Measured values: patent publication USRE48842E1, “Pyrimido-pyrrolo-oxazine-dione compound inhibitors of the cystic fibrosis transmembrane conductance regulator protein and uses therefor” (The Regents of the University of California, priority 2011, dated 2021)
Where two headings read alike, the source gives them in different places.

Experiments:
E13.5 embryonic kidneys [1] = experiment: Embryonic kidney organ culture model of PKD (8-Br-cAMP-induced cyst growth); format: cell-based, mouse
Description: Embryonic Organ Culture Model of PKD—Mouse embryos were obtained at embryonic day 13.5 (E13.5). Metanephroi were dissected and placed on transparent Falcon […] porous cell culture inserts as described (see, e.g., Tradtrantip et al., J. Med. Chem. 2009, supra). To the culture inserts was added DMEM/Ham's F-12 nutrient medium supplemented with 2 mM L-glutamine, 10 mM HEPES, 5 μg/mL insulin, 5 μg/mL transferrin, 2.8 nM selenium, 25 ng/ml prostaglandin E, 32 pg/ml T3, 250 U/ml penicillin, and 250 μg/ml streptomycin. Kidneys were maintained in a 37° C. humidified CO2 incubator for up to 8 days. Culture medium containing 100 μM 8-Br-cAMP, with or without test compound, was replaced (in the lower chamber) every 12 h. Kidneys were photographed using a Nikon inverted microscope (Nikon TE 2000-S) equipped with 2× objective lens, 520 nm bandpass filter, and high-resolution CCD camera. Percentage cyst area was calculated as total cyst area divided by total kidney area.
An established embryonic ex vivo kidney organ culture model of PKD was used to test BPO-27 (racemic mixture of R and S forms) efficacy in reducing cAMP agonist-induced renal cystogenesis (see Example 30). […]

human wildtype CFTR = human wildtype CFTR (Homo sapiens, UniProt P13569); experiment: Short-circuit current analysis of CFTR inhibition in CFTR-expressing FRT cells; format: cell-based; design: expressed in transfected cells; host or cells: Fischer rat thyroid (FRT) epithelial cells on Snapwell inserts
Chain of human wildtype CFTR (P13569 whole entry): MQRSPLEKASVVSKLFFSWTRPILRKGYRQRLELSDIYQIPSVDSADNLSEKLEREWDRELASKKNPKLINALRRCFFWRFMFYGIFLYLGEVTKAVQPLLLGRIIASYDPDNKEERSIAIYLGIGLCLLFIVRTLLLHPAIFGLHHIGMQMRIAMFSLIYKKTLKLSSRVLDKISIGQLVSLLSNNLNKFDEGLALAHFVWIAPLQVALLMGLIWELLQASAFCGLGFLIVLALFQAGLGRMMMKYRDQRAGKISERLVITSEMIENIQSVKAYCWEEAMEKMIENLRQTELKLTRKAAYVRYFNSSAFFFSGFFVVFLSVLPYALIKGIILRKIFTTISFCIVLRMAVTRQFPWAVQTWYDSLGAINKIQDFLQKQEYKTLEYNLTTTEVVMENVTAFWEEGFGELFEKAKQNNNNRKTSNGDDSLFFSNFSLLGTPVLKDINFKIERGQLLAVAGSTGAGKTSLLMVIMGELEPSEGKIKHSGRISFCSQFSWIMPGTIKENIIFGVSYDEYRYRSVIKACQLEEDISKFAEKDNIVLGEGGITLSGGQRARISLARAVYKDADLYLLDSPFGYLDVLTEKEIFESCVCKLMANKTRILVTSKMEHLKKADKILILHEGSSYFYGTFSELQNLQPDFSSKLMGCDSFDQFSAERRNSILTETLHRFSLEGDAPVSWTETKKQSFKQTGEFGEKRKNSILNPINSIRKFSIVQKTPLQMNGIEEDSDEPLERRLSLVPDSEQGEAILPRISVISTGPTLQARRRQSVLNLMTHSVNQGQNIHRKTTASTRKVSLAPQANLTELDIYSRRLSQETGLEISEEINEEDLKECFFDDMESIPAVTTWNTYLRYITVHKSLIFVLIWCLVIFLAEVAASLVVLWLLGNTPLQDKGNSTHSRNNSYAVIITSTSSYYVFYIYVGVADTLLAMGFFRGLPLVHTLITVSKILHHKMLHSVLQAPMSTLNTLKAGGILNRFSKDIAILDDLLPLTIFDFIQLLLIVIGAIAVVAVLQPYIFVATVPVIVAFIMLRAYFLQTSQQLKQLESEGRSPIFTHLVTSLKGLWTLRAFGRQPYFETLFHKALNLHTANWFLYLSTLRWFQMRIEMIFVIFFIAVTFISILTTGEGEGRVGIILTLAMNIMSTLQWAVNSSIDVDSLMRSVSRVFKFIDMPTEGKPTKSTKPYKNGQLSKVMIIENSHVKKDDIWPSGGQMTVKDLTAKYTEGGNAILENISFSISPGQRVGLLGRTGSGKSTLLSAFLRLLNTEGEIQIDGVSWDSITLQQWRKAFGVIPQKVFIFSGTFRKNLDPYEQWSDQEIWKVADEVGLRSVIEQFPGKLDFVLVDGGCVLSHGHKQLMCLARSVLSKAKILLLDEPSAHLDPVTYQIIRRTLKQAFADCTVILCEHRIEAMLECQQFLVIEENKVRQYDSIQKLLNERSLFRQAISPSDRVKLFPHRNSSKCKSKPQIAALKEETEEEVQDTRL
Description: Short-Circuit Current—Snapwell inserts containing CFTR-expressing FRT cells were mounted in an Ussing chamber. The hemichambers contained 5 mL of buffer containing 75 mM NaCl and 75 mM Na gluconate (apical) and 150 mM NaCl (basolateral) (pH 7.3), and the basolateral membrane was permeabilized with 250 μg/mL amphotericin B, as described (see, e.g., Sonawane et al., FASEB J 2006, supra). Short-circuit current was recorded continuously using a DVC-1000 voltage clamp (World Precision Instruments) using Ag/AgCl electrodes and 3 M KCl agar bridges.
Current was measured in CFTR-expressing FRT cells in which the basolateral membrane was permeabilized and in the presence of a transepithelial chloride concentration gradient, so that current is a quantitative linear measure of CFTR function. CFTR was activated by forskolin, followed by serial additions of increasing concentrations of test compounds.
CFTR inhibition potency was measured by short-circuit current analysis in FRT epithelial cells expressing human CFTR in presence of a transepithelial chloride gradient and in which the basolateral membrane was permeabilized with amphotericin B. Under these conditions short-circuit current is proportional to CFTR chloride conductance.

[2] = Mouse pharmacokinetics and renal accumulation (LC/MS); format: in vivo
Description: Mouse Pharmacokinetics and Renal Accumulation—A compound of structure (I) was formulated at 1 mg/mL in 5% DMSO, 2.5% Tween-80 and 2.5% PEG400 in H2O, based on formulations used for compounds of similar polarity and chemical properties. Male mice in a CD1 genetic background (age 8-10 weeks, 25-35 g) were administered 300 μL of the BPO-27 formulation by intraperitoneal injection. At specified times kidneys were removed following renal arterial perfusion with PBS. Kidneys were weighed, mixed with acetic acid (100 μl per 1 g tissue) and ethyl acetate (10 mL per 1 g tissue), and homogenized. The homogenate was centrifuged at 3,000 rpm for 15 min. Calibration standards were prepared in kidney homogenates from control mice to which was added known amounts of BPO-27. The ethyl acetate-containing supernatant was dried under nitrogen and the residue was reconstituted in acetonitrile:H2O (3:1) containing 0.1% formic acid. For analysis of blood and urine, fluids were diluted with equal volume of water and extracted with ethyl acetate. LC/MS analysis was carried out as described herein.
PPQ-102 was undetectable in serum, kidney, and urine at 30-60 min after intravenous bolus administration of 300 μg PPQ-102 in mice using an LC/MS assay with sensitivity better than 100 nM. […] To improve on the drug-like properties of PPQ-102, a series of compound analogs were synthesized and tested.
BPO-27 pharmacokinetics in mice was measured following bolus intraperitoneal administration in an aqueous formulation in 5% DMSO, 2.5% Tween-80 and 2.5% PEG400 in water. BPO-27 was measured by LC/MS in kidney, blood and urine. […] The assay was linear with a detection sensitivity of better than 100 nM BPO-27. […] FIG. 11C summarizes the deduced BPO-27 concentrations in kidney, blood and urine over time. The t1/2 for disappearance of the original compound was approximately 2 h.

E13.5 embryonic kidneys [3] = settings: from Tradtrantip et al., J. Med. Chem. 2009; read-out: IC50 for inhibition of cyst growth; cited from earlier work
CFTR = CFTR (Homo sapiens, UniProt P13569); settings: literature values; read-out: IC50 for CFTR inhibition; cited from earlier work
Chain of CFTR (P13569 whole entry, species assumed): as the sequence (P13569 whole entry) above

[4] = short-circuit current, FRT cells expressing human CFTR, forskolin-stimulated, read-out: IC50 for inhibition of CFTR chloride conductance

| SMILES | IC50 (E13.5 embryonic kidneys [1]; Mus musculus, 100 μM 8-Br-cAMP, racemic mixture, read-out: IC50 for inhibition of cyst growth (percentage area occupied by cysts)) [µM] | cyst growth in 8-Br-cAMP-treated kidney (in words) (E13.5 embryonic kidneys [1]; compound in culture medium, 0.1 or 1 μM) | IC50 (human wildtype CFTR; Determined by short-circuit current assay, read-out: IC50 (μM)^B) [µM] | IC50 (human wildtype CFTR; [4]) [µM] | half-life ([2]; male, CD1, mouse, in vivo, ip, 300 μg, mice, bolus intraperitoneal administration, read-out: t1/2 for disappearance of the original compound (converted)) [h] | compound concentration in kidney, blood and urine ([2]; mice, for many hours following single intraperitoneal dose) | IC50 (E13.5 embryonic kidneys [3]) [µM] | IC50 (CFTR) [µM] | compound in serum, kidney, and urine ([2]; 30-60 min after intravenous bolus of 300 μg in mice, LC/MS sensitivity better than 100 nM) |
| --- | --- | --- | --- | --- | --- | --- | --- | --- | --- |
| Cn1c(=O)c2c(-c3ccccc3)n3c(c2n(C)c1=O)C(c1ccc(Br)o1)Oc1ccc(C(=O)O)cc1-3 (racemic) [BPO-27, 6-(5-Bromofuran-2-yl)-7,9-dimethyl-8,10-dioxo-11-phenyl-7,8,9,10-tetrahydro-6H-benzo[b]pyrimido[4′,5′:3,4]pyrrolo[1,2-d][1,4]oxazine-2-carboxylic acid] | ~0.1 | remarkably reduced | 0.008 | ~0.008 | ~2 | greater than 4 nM |  |  |  |
| Cc1ccc(C2Nc3ccccc3-n3c(-c4ccccc4)c4c(=O)n(C)c(=O)n(C)c4c32)o1 (stereo not shown) [PPQ-102, 7,9-Dimethyl-6-(5-methylfuran-2-yl)-11-phenyl-5,6-dihydropyrimido[4′,5′-3,4]pyrrolo[1,2-a]quinoxaline-8,10-(7H,9H)-dione, reference compound] |  |  |  | 0.1 |  |  | > 0.5 | ~0.09 | undetectable |
